Values of other authors in patent publication US20170266090A1, “ANTIMICROBIAL COMPOSITIONS THAT ARE DERMATOLOGICALLY NON-DRYING” (Marvel Technologies USA, LLC, priority 2016, published 2017).

Details: background statement, no source given

## CCO [Ethanol]
  Drying time: eight to thirteen
